Test results reported in patent US5958966A, “Treatment of aberrant cellular states with biomodulators” (University of New Mexico, priority 1995, dated 1999).
Entries after “also recorded” stand apart in the source; their conditions may differ.

Legend:
[1] = test system: human peripheral blood leukocytes (HPBL); experiment: stimulation / inhibition of IgG production in HPBL; assay type: cell-based; conditions: HPBL
Description: Human peripheral blood leukocytes were cultured in a standard tissue culture medium. Aliquots of these cultured cells (1,000,000 cells/ml medium) were cultured for 6 hours, and the specified amount of Formula II compound was added; the cells were then cultured for an additional 90 hours. Sheep red blood cells (SRBC) conditioned with class-specific (IpG) goat anti-human antiserum (1:400) for 2 hours; then guinea pig complement (2%) for 2 hours were conjugated to Protein A as described in detail in Radioimmunoimaging and Radioimmunotherapy, Eds. S. W. Burchiel and B. A. Rhodes, Elsevier Science Publishing; New York, 1983, pp. 125-127, incorporated herein by reference.

anti-CG IgG antibodies = experiment: tumor-specific (anti-CG) antibody production in a dog; assay type: in vivo
canine glioma (CG) cells = experiment: chromium-release cell-mediated lympholysis (CML) vs. CG tumor in a dog; assay type: in vivo; conditions: for CG-specific CML in words: dog
From the text: Cellular immune response reflected the results reported in III, 1 above. […] This also is in the absence of CG antigen exposure. […] Thus, both cellular and humoral immunity appear to be modulatable in the absence of antigen by the compounds of the instant invention.

canine glioma cells = experiment: canine glioma tumor inhibition in nude rats (Formula II compound); assay type: in vivo, nude rat
Description: Fifty four nude rats (Harlan) were injected in the right flank with 5×10^6 canine glioma cells. Animals at the time of injection were between 52 and 63 days old and weighed approximately 200 g. The rats were divided into 7 groups, each group having a total number of 7 rats except for the control group, which totalled 12 animals. Compound IIc' was administered to the experimental animals at one of the following doses for each experimental group: 100 μg/kg, 10 μg/kg, 1 μg/kg, 0.1 μg/kg, 0.01 μg/kg and 0.001 μg/kg (phosphate buffer saline, M, W, F, I.P.). The control animals were injected with PBS (phosphate buffered saline) only. The volume of each injection was 100 μl. The injections of drug were simultaneously begun with injection of tumor cells. The animals were injected with the appropriate dosage of drug (1 ng/kg to […]) by I. P. injection and tumor length, width and depth were measured using caliphers each Monday, Wednesday and Friday (M, W, F) morning for approximately 9 weeks. Each point on the graphs represents the total of all rats for each group. […] The data were normalized for the greater number of control animals by multiplying the total tumor volume for the control animals by 7/12.

CC(C)OC(=O)C[C@H](O)C[C@@H](O)/C=C/c1c(C(C)C)nc(-c2ccccc2)n1-c1ccc(F)cc1 [Compound IIc']
IgG production in words [1]: stimulated IgG production
Inhibitory Concentration (nonspecific IgG production below normal) [1]: none found
optimal dose in vitro ([1]; immune stimulation): 100 pM
CG-specific antibody titer in words (anti-CG IgG antibodies): titers of antibody increased over the control antibody titer significantly; also recorded: CG-specific antibody (IgG) production increased significantly; also recorded: rapidly (within a few days) reverted to baseline control levels
slope M of linear regression of toxicity (canine glioma (CG) cells; December 14, 1987): 0.05
slope M of linear regression of toxicity (canine glioma (CG) cells; February 9, 1988): 0.35
slope M of linear regression of toxicity (canine glioma (CG) cells; February 17, 1988): 0.75
slope M of linear regression of toxicity (canine glioma (CG) cells; March 31, 1988): 0.05
CG-specific CML in words (canine glioma (CG) cells): significant increase in CML; also recorded: large increase in the CML reactivity; also recorded: CML reactivity again returned to baseline
CG-specific CML in words (canine glioma (CG) cells; listed as IIIc'): only baseline levels of CG-specific CML were present
cytostatic activity at other doses (canine glioma cells; 10 and 100 μg/kg or 1 ng/kg): Little or no cytostatic activity
most effective dosage for inhibition (canine glioma cells; nude rats, I.P., M, W, F): 100 ng/kg
